Assays:
[1] = system: Epidermal growth factor receptor (Homo sapiens), P00533 [L858R,T790M,C797S]; conditions: dose 500.0 nM
Description: Inhibition of EGFR L858R/T790M/C797S mutant (unknown origin) at 500 nM relative to control

[2] = cells; conditions: Mus musculus, Ba/F3 EGFR-T790M/C797S/L858R
Description: Antiproliferative activity against mouse Ba/F3 EGFR-T790M/C797S/L858R cells

[3] = biological target: Epidermal growth factor receptor (Homo sapiens, UniProt P00533, C797S/L858R/T790M); assay: Inhibition of EGFR L858R/T790M/C797S mutant (unknown origin)
[4] = biological target: Epidermal growth factor receptor (Homo sapiens, UniProt P00533); assay: Inhibition of wild-type EGFR (unknown origin)
[5] = Potency index, ratio of Brigatinib IC50 to test compound IC50 for antiproliferative activity against mouse Ba/F3 EGFR-T790M/C797S/L858R cells; type: functional

Sequence of Epidermal growth factor receptor (Homo sapiens, UniProt P00533, C797S/L858R/T790M) (P00533 25-1210 T790M/C797S/L858R limits assumed): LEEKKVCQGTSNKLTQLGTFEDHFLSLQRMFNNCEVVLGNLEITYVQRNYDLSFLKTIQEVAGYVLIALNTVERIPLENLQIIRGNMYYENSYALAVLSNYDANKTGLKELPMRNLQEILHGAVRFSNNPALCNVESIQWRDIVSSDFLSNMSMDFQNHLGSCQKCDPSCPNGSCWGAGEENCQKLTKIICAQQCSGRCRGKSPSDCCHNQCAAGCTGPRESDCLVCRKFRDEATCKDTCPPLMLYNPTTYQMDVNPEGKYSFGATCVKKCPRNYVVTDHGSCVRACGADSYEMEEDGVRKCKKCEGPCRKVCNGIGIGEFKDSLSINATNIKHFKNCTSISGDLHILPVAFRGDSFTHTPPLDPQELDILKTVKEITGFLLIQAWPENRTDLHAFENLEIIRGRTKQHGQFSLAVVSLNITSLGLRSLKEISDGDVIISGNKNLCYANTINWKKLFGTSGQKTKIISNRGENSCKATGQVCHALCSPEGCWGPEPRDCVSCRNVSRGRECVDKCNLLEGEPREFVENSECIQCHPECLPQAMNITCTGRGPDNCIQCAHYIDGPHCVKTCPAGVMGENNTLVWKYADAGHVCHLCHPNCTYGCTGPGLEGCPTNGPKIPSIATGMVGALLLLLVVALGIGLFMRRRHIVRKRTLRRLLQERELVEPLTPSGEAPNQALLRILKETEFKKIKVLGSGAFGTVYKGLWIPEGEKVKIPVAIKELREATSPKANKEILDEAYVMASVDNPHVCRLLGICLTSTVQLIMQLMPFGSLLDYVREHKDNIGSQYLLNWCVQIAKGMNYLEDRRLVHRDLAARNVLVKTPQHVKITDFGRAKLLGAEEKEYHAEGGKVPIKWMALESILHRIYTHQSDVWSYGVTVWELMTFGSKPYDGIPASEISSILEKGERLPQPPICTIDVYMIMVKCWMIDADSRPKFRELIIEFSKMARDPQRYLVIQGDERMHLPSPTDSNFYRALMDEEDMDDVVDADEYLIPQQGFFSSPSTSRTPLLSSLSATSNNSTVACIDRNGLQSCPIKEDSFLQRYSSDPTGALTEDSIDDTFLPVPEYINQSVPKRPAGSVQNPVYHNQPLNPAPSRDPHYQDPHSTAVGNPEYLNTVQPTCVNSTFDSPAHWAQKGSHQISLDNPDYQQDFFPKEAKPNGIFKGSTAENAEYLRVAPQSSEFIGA
Sequence of Epidermal growth factor receptor (Homo sapiens), P00533 [L858R,T790M,C797S] (P00533 whole entry T790M/C797S/L858R): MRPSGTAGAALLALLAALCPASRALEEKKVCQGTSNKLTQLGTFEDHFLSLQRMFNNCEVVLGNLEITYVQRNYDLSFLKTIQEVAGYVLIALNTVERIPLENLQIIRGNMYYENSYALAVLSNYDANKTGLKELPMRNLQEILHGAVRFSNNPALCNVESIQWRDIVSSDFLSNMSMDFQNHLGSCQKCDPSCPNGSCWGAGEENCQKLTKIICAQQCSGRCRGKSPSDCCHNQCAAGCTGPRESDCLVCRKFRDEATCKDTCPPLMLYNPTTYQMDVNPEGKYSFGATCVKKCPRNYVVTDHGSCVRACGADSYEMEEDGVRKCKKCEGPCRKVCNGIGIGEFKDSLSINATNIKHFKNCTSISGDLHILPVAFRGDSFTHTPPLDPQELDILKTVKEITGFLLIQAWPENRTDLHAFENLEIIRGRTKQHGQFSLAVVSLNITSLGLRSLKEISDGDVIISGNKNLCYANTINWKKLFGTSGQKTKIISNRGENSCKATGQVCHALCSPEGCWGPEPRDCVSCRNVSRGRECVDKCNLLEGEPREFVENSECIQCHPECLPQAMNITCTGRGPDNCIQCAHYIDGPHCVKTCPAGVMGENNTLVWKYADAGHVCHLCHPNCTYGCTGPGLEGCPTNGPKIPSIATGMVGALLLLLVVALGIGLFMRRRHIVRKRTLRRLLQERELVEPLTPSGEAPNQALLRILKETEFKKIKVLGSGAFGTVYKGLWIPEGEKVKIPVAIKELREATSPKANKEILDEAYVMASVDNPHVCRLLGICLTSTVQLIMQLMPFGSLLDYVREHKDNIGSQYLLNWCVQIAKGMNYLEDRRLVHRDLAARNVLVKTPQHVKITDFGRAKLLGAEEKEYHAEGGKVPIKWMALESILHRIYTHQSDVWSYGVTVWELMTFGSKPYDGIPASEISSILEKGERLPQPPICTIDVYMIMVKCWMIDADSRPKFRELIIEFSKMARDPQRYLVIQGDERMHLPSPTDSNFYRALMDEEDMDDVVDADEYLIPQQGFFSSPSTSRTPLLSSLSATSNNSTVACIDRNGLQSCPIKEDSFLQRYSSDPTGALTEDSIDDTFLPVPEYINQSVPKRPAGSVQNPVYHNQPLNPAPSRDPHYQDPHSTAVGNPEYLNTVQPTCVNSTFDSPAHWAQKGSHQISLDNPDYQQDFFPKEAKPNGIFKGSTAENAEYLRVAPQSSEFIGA
Sequence of Epidermal growth factor receptor (Homo sapiens, UniProt P00533) (P00533 whole entry): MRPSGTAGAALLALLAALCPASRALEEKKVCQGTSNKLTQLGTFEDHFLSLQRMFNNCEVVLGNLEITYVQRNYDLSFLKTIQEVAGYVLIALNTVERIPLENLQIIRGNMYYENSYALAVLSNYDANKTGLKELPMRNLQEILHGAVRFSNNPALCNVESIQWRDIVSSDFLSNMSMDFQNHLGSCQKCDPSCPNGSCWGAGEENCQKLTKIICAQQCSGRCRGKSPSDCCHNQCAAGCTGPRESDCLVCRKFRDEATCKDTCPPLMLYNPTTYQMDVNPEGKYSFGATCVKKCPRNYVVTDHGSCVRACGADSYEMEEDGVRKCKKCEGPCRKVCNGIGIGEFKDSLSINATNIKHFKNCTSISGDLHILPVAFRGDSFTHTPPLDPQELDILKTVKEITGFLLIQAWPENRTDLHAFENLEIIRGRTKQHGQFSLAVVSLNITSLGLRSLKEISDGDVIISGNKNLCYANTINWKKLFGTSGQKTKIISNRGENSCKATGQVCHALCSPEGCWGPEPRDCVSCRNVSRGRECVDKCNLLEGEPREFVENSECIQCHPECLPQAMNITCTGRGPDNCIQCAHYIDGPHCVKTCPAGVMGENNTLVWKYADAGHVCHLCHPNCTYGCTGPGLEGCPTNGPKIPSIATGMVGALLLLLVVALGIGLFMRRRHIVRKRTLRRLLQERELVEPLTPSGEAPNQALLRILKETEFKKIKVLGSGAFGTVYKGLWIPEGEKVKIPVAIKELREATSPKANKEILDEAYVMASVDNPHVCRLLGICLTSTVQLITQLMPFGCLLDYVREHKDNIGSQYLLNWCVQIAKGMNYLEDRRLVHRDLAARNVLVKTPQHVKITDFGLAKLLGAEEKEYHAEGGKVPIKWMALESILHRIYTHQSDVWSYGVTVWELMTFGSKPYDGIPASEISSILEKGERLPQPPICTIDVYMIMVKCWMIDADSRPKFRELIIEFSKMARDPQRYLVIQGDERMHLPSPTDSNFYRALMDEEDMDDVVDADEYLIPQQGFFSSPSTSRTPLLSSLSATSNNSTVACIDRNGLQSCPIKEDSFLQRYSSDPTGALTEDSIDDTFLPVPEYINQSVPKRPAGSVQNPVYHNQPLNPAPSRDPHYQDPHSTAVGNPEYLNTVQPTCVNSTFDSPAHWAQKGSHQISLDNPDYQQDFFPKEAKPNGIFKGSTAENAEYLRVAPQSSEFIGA

Structure (SMILES)	inhibition [1] [%]	also measured
CCCCS(=O)(=O)Nc1cnn(-c2ccnc(Nc3cc(C)c(N4CCC(N5CCN(C)CC5)CC4)cc3OC)n2)c1	90.2	
COc1cc(N2CCC(N3CCN(C)CC3)CC2)ccc1Nc1ncc(Cl)c(Nc2ccccc2P(C)(C)=O)n1 [BRIGATINIB]		IC50 [2]: 542 nM
COc1cc(N2CCC(N3CCN(C)CC3)CC2)c(C)cc1Nc1ncc(Br)c(-n2ccc(-c3ccccc3NS(=O)(=O)C3CC3)n2)n1	81.8	IC50 [2]: 340 nM; IC50 [3]: 93.8 nM; IC50 [4]: > 5000 nM
C=CC(=O)Nc1cnn(-c2ccnc(Nc3cc(C)c(N4CCOCC4)cc3OC)n2)c1	48.5	
CCS(=O)(=O)Nc1ccccc1-c1ccn(-c2nc(Nc3cc(C)c(N4CCC(N5CCN(C)CC5)CC4)cc3OC)ncc2Br)n1	71.4	
C=CC(=O)Nc1cnn(-c2ccnc(Nc3cc(C)c(N4CCN(S(C)(=O)=O)CC4)cc3OC)n2)c1	54.3	
C=CC(=O)Nc1cnn(-c2ccnc(Nc3cc(C)c(N4CCC(N(C)C)CC4)cc3OC)n2)c1	61.1	
CCC(=O)Nc1cnn(-c2ccnc(Nc3cc(C)c(N4CCC(N5CCN(C)CC5)CC4)cc3OC)n2)c1	85.4	
C=CC(=O)Nc1ccccc1-c1ccn(-c2nc(Nc3cc(C)c(N4CCC(N5CCN(C)CC5)CC4)cc3OC)ncc2Br)n1	79.9	
COc1cc(N2CCC(N3CCN(C)CC3)CC2)c(C)cc1Nc1nccc(-n2cc(NC(C)=O)cn2)n1	82.6	
C=CC(=O)Nc1cnn(-c2ccnc(Nc3cc(C)c(N4CCN(C)CC4)cc3OC)n2)c1	47.3	
C=CC(=O)Nc1cnn(-c2ccnc(Nc3cc(C)c(N4CCN(C(C)C)CC4)cc3OC)n2)c1	46.1	
COc1cc(N2CCC(N3CCN(C)CC3)CC2)c(C)cc1Nc1nccc(-n2cc(NC(=O)C(C)C)cn2)n1	80.4	
COc1cc(N2CCC(N3CCN(C)CC3)CC2)c(C)cc1Nc1nccc(-n2cc(NS(=O)(=O)C3CC3)cn2)n1	93.2	IC50 [2]: 97.1 nM; IC50 [3]: 18.8 nM; Ratio IC50 [5]: 5; IC50 [4]: 159 nM
C/C=C/C(=O)Nc1cnn(-c2ccnc(Nc3cc(C)c(N4CCC(N5CCN(C)CC5)CC4)cc3OC)n2)c1	81.9	
COc1cc(N2CCC(N3CCN(C)CC3)CC2)c(C)cc1Nc1nccc(-n2cc(NC(=O)C=C(C)C)cn2)n1	87.2	IC50 [2]: 213 nM; IC50 [3]: 53.4 nM; IC50 [4]: 382 nM
CCCS(=O)(=O)Nc1cnn(-c2ccnc(Nc3cc(C)c(N4CCC(N5CCN(C)CC5)CC4)cc3OC)n2)c1	89.1	
C=CC(=O)Nc1cnn(-c2ccnc(Nc3cc(C)c(N4CCN(C(C)=O)CC4)cc3OC)n2)c1	48.8	
COc1cc(N2CCC(N3CCN(C)CC3)CC2)c(C)cc1Nc1nccc(-n2cc(NS(=O)(=O)C(C)C)cn2)n1	90.2	
C=CC(=O)Nc1cnn(-c2ccnc(Nc3cc(C)c(N4CCC(N5CCN(C)CC5)CC4)cc3OC)n2)c1	80	IC50 [2]: 238 nM; IC50 [3]: 78.2 nM; IC50 [4]: 485 nM
C=C(C)C(=O)Nc1cnn(-c2ccnc(Nc3cc(C)c(N4CCC(N5CCN(C)CC5)CC4)cc3OC)n2)c1	83.8	
COc1cc(N2CCC(N3CCN(C)CC3)CC2)c(C)cc1Nc1nccc(-n2cc(NS(C)(=O)=O)cn2)n1	88.1	
COc1cc(N2CCC(N3CCN(C)CC3)CC2)c(C)cc1Nc1nccc(-n2cc(NC(=O)C3CC3)cn2)n1	89.8	IC50 [2]: 136 nM; IC50 [3]: 37.6 nM; IC50 [4]: 338 nM
C=CC(=O)Nc1cnn(-c2ccnc(Nc3cc(C)c(N4CCC(N5CCCC5)CC4)cc3OC)n2)c1	75.7	
CCS(=O)(=O)Nc1cnn(-c2ccnc(Nc3cc(C)c(N4CCC(N5CCN(C)CC5)CC4)cc3OC)n2)c1	89	

From ChEMBL document CHEMBL6182847, “Design, synthesis, and biological evaluation of novel aminopyrimidine derivatives as EGFR inhibitors” (Bioorg Med Chem Lett, 2025)
